Measured values from the CheMixHub viscosity set.
± gives the uncertainty stated by the source.

Test: xn = mol fraction of the nth substance listed
Settings: 101 kPa

CC(O)CN(C)C (stereo not given) + O
viscosity (313.15 K, x1 = 0.2001): 4.08 ± 0.09 mPa·s
viscosity (313.15 K, x1 = 0.2021): 4.263 ± 0.034 mPa·s
viscosity (313.15 K, x1 = 0.2501): 4.372 ± 0.036 mPa·s
viscosity (313.15 K, x1 = 0.3003): 4.01 ± 0.09 mPa·s
viscosity (313.15 K, x1 = 0.3013): 4.227 ± 0.036 mPa·s
viscosity (313.15 K, x1 = 0.3998): 3.49 ± 0.08 mPa·s
viscosity (313.15 K, x1 = 0.4013): 3.628 ± 0.033 mPa·s
viscosity (313.15 K, x1 = 0.4578): 3.213 ± 0.03 mPa·s
viscosity (313.15 K, x1 = 0.4999): 2.8 ± 0.06 mPa·s
viscosity (313.15 K, x1 = 0.5049): 2.882 ± 0.028 mPa·s
viscosity (313.15 K, x1 = 0.6): 2.17 ± 0.05 mPa·s
viscosity (313.15 K, x1 = 0.6009): 2.294 ± 0.024 mPa·s
viscosity (313.15 K, x1 = 0.7002): 1.69 ± 0.04 mPa·s
viscosity (313.15 K, x1 = 0.7054): 1.807 ± 0.021 mPa·s
viscosity (313.15 K, x1 = 0.7955): 1.479 ± 0.018 mPa·s
viscosity (313.15 K, x1 = 0.8): 1.4 ± 0.03 mPa·s
viscosity (313.15 K, x1 = 0.8905): 1.218 ± 0.017 mPa·s
viscosity (313.15 K, x1 = 0.9001): 1.17 ± 0.03 mPa·s
viscosity (313.15 K, x1 = 0.9564): 1.077 ± 0.016 mPa·s
viscosity (318.15 K, x1 = 0.05): 1.441 ± 0.014 mPa·s
viscosity (318.15 K, x1 = 0.0997): 2.393 ± 0.02 mPa·s
viscosity (318.15 K, x1 = 0.1507): 3.11 ± 0.025 mPa·s
viscosity (318.15 K, x1 = 0.2021): 3.485 ± 0.028 mPa·s
viscosity (318.15 K, x1 = 0.2501): 3.562 ± 0.03 mPa·s
viscosity (318.15 K, x1 = 0.3013): 3.449 ± 0.029 mPa·s
viscosity (318.15 K, x1 = 0.3507): 3.249 ± 0.029 mPa·s
viscosity (318.15 K, x1 = 0.4013): 2.989 ± 0.027 mPa·s
viscosity (318.15 K, x1 = 0.4578): 2.674 ± 0.025 mPa·s
viscosity (318.15 K, x1 = 0.5049): 2.426 ± 0.024 mPa·s
viscosity (318.15 K, x1 = 0.6009): 1.955 ± 0.021 mPa·s
viscosity (318.15 K, x1 = 0.7054): 1.57 ± 0.018 mPa·s
viscosity (318.15 K, x1 = 0.7955): 1.305 ± 0.017 mPa·s
viscosity (318.15 K, x1 = 0.8905): 1.092 ± 0.016 mPa·s
viscosity (318.15 K, x1 = 0.9564): 0.973 ± 0.015 mPa·s
viscosity (323.15 K, x1 = 0.05): 1.264 ± 0.013 mPa·s
viscosity (323.15 K, x1 = 0.0997): 2.027 ± 0.018 mPa·s
viscosity (323.15 K, x1 = 0.1): 2.15 ± 0.05 mPa·s
viscosity (323.15 K, x1 = 0.1507): 2.592 ± 0.023 mPa·s
viscosity (323.15 K, x1 = 0.2001): 2.82 ± 0.06 mPa·s
viscosity (323.15 K, x1 = 0.2021): 2.881 ± 0.025 mPa·s
viscosity (323.15 K, x1 = 0.2501): 2.935 ± 0.026 mPa·s
viscosity (323.15 K, x1 = 0.3003): 2.8 ± 0.06 mPa·s
viscosity (323.15 K, x1 = 0.3013): 2.847 ± 0.026 mPa·s
viscosity (323.15 K, x1 = 0.3507): 2.692 ± 0.025 mPa·s
viscosity (323.15 K, x1 = 0.3998): 2.47 ± 0.05 mPa·s
viscosity (323.15 K, x1 = 0.4999): 2.01 ± 0.04 mPa·s
viscosity (323.15 K, x1 = 0.6): 1.62 ± 0.04 mPa·s
viscosity (323.15 K, x1 = 0.7002): 1.32 ± 0.03 mPa·s
viscosity (323.15 K, x1 = 0.8): 1.11 ± 0.02 mPa·s
viscosity (323.15 K, x1 = 0.9001): 0.95 ± 0.02 mPa·s
